PubChem BioAssay (NCI)
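Results reflect a 48-hour exposure of cells in 96-well plates to compound at five concentrations. TGI: total growth inhibition.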

Legend:
Assay in all cases: inhibition of tumour cell growth, NCI panel, 48 h
[1] = test system: SF-268 CNS
[2] = test system: SR leukemia
[3] = test system: SN12C renal
[4] = test system: NCI-H460 lung
[5] = test system: 786-0 renal
[6] = test system: DMS 273 small cell lung
[7] = test system: SK-OV-3 ovarian
[8] = test system: MALME-3M melanoma
[9] = test system: DLD-1 colon
[10] = test system: SNB-75 CNS
[11] = test system: SNB-78 CNS
[12] = test system: LOX IMVI melanoma
[13] = test system: CAKI-1 renal
[14] = test system: HT29 colon
[15] = test system: SF-539 CNS
[16] = test system: NCI-H226 lung
[17] = test system: DMS 114 small cell lung
[18] = test system: HL-60(TB) leukemia
[19] = test system: UACC-257 melanoma
[20] = test system: HCC-2998 colon
[21] = test system: SK-MEL-5 melanoma
[22] = test system: A498 renal
[23] = test system: NCI-H23 lung
[24] = test system: OVCAR-5 ovarian
[25] = test system: SK-MEL-2 melanoma
[26] = test system: SNB-19 CNS
[27] = test system: SW-620 colon
[28] = test system: MOLT-4 leukemia
[29] = test system: KM20L2 colon
[30] = test system: OVCAR-8 ovarian
[31] = test system: M14 melanoma
[32] = test system: LXFL 529 NSCLC
[33] = test system: K-562 leukemia
[34] = test system: CCRF-CEM leukemia
[35] = test system: ACHN renal
[36] = test system: COLO 205 colon
[37] = test system: EKVX NSCLC
[38] = test system: HOP-62 NSCLC
[39] = test system: U251 CNS
[40] = test system: KM12 colon
[41] = test system: OVCAR-3 ovarian
[42] = test system: OVCAR-4 ovarian
[43] = test system: UACC-62 melanoma
[44] = test system: RXF 393 renal
[45] = test system: HCT-116 colon
[46] = test system: SK-MEL-28 melanoma
[47] = test system: HOP-18 NSCLC
[48] = test system: IGROV1 ovarian
[49] = test system: HOP-92 NSCLC
[50] = test system: A549 NSCLC
[51] = test system: RPMI-8226 leukemia
[52] = test system: SF-295 CNS
[53] = test system: M19-MEL melanoma
[54] = test system: HCT-15 colon
[55] = test system: UO-31 renal
[56] = test system: TK-10 renal
[57] = test system: XF 498 CNS
[58] = test system: NCI-H522 lung

CCOC(=O)/C=C1\Nc2ccccc2-n2nnnc21
TGI [1]: > 100 µM | TGI [2]: > 100 µM | TGI [3]: > 100 µM | TGI [4]: > 100 µM | TGI [5]: > 100 µM | TGI [6]: 93.5 µM | TGI [7]: > 100 µM | TGI [8]: > 100 µM | TGI [9]: > 100 µM | TGI [10]: > 100 µM | TGI [11]: > 100 µM | TGI [12]: > 100 µM | TGI [13]: > 100 µM | TGI [14]: > 100 µM | TGI [15]: > 100 µM | TGI [16]: > 100 µM | TGI [17]: > 100 µM | TGI [18]: > 100 µM | TGI [19]: > 100 µM | TGI [20]: > 100 µM | TGI [21]: > 100 µM | TGI [22]: > 100 µM | TGI [23]: > 100 µM | TGI [24]: > 100 µM | TGI [25]: > 100 µM | TGI [26]: > 100 µM | TGI [27]: 58.6 µM | TGI [28]: > 100 µM | TGI [29]: > 100 µM | TGI [30]: > 100 µM | TGI [31]: > 100 µM | TGI [32]: > 100 µM | TGI [33]: > 100 µM | TGI [34]: > 100 µM | TGI [35]: > 100 µM | TGI [36]: > 100 µM | TGI [37]: > 100 µM | TGI [38]: > 100 µM | TGI [39]: 64.5 µM | TGI [40]: > 100 µM | TGI [41]: > 100 µM | TGI [42]: > 100 µM | TGI [43]: > 100 µM | TGI [44]: > 100 µM | TGI [45]: > 100 µM | TGI [46]: > 100 µM | TGI [47]: > 100 µM | TGI [48]: > 100 µM | TGI [49]: > 100 µM | TGI [50]: > 100 µM | TGI [51]: > 100 µM | TGI [52]: > 100 µM | TGI [53]: > 100 µM | TGI [54]: > 100 µM | TGI [55]: > 100 µM | TGI [56]: > 100 µM

CCC(=C(c1ccc(OCc2ccccc2)cc1)c1ccc(OCc2ccccc2)cc1)c1ccc(OC)cc1
TGI [1]: > 100 µM | TGI [2]: > 100 µM | TGI [3]: > 100 µM | TGI [4]: > 100 µM | TGI [5]: > 100 µM | TGI [6]: > 100 µM | TGI [7]: > 100 µM | TGI [8]: > 100 µM | TGI [9]: > 100 µM | TGI [10]: > 100 µM | TGI [11]: > 100 µM | TGI [12]: > 100 µM | TGI [13]: > 100 µM | TGI [14]: > 100 µM | TGI [15]: > 100 µM | TGI [16]: > 100 µM | TGI [17]: > 100 µM | TGI [18]: > 100 µM | TGI [20]: > 100 µM | TGI [21]: > 100 µM | TGI [23]: > 100 µM | TGI [24]: > 100 µM | TGI [25]: > 100 µM | TGI [26]: > 100 µM | TGI [27]: > 100 µM | TGI [28]: > 100 µM | TGI [29]: > 100 µM | TGI [30]: > 100 µM | TGI [57]: > 100 µM | TGI [31]: > 100 µM | TGI [32]: > 100 µM | TGI [33]: > 100 µM | TGI [34]: > 100 µM | TGI [35]: > 100 µM | TGI [36]: > 100 µM | TGI [37]: > 100 µM | TGI [38]: > 100 µM | TGI [39]: > 100 µM | TGI [40]: > 100 µM | TGI [41]: > 100 µM | TGI [42]: > 100 µM | TGI [43]: > 100 µM | TGI [44]: > 100 µM | TGI [45]: > 100 µM | TGI [46]: > 100 µM | TGI [48]: > 100 µM | TGI [49]: > 100 µM | TGI [58]: > 100 µM | TGI [50]: > 100 µM | TGI [51]: > 100 µM | TGI [52]: > 100 µM | TGI [53]: > 100 µM | TGI [54]: > 100 µM | TGI [55]: > 100 µM | TGI [56]: > 100 µM
